This is an account of results in article PMC7297817, “Pharmacological Characterization of a Betaine/GABA Transporter 1 (BGT1) Inhibitor Displaying an Unusual Biphasic Inhibition Profile and Anti-seizure Effects” (Neurochemical Research, 2020).

Entries after “also recorded” stand apart in the source; their conditions may differ. Where two headings read alike, the source gives them in different places.

One experiment addresses T1, hBGT1 (Homo sapiens, UniProt P48065).
T1 construct: expressed in transfected cells; host or cells: tsA201 (transient)
T1 sequence (P48065 1-614): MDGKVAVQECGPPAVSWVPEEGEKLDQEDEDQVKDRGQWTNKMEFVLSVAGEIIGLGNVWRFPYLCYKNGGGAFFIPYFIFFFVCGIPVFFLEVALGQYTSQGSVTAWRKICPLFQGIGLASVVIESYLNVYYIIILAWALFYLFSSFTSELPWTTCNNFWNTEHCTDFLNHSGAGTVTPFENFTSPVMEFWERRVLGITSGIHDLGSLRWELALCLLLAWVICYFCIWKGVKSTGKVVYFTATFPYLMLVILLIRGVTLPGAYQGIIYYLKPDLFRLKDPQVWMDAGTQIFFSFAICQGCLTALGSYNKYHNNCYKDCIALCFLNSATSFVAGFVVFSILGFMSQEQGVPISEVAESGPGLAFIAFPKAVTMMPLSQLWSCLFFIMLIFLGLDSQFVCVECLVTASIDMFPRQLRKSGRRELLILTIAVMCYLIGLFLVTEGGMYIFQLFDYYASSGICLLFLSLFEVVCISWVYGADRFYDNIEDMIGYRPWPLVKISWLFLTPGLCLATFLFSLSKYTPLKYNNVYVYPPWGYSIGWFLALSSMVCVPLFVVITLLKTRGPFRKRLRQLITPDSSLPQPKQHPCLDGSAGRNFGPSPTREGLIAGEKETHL
The experiment in a line: [3H]GABA uptake at hBGT1 transiently expressed in tsA201 cells. Particulars: for IC50 / inhibition profile (mono-/biphasic): 30 nM [3H]GABA, 3 min; for Frac: proportion of maximal response due to the more potent phase; for inhibition profile (mono-/biphasic): F test; for preferred curve fitting: in the presence of 10 μM ATP. The class given is cell-based. Here is the method: The tsA201 cell line was used for transient expression while the MDCK II cell line express BGT1 endogenously. Both cell lines were cultured as described. tsA201 cells were transfected with DNA constructs (8 μg per 10 cm dish if not otherwise mentioned) using 40 μL PolyFect transfection reagent according to the manufacturer’s protocol (Qiagen, Venlo, Netherlands). The DNA constructs encoding hBGT1, hGAT1-3 [36], the mutated constructs hBGT1 Q299 and hGAT3 L314Q described previously, and hBGT Y453A were synthesized and sequence validated by Genscript (NJ, USA).
The [^3H]GABA competition uptake assay was performed as previously described. […] Studies related to the inhibition curves with GABA and BPDBA at hBGT1 were obtained both with and without the presence of 10 μM ATP during the [^3H]GABA uptake assay.
All compounds, except BAPTA/AM, were also present at the same concentration during the course of the actual [^3H]GABA uptake assay.
The [^3H]GABA uptake data was normalized to the percentage of total uptake in the individual experiments in the presence of the lowest compound concentration or no compound present. Data presented is the pooled data of at least three independent experiments with three technical replicates. Concentration–response curves (CRCs) were fitted with GraphPad Prism (version 8.2.1, Yosemite, GraphPad Software, San Diego, CA, USA) by non-linear regression to the sigmoidal concentration response model: Y=Bottom+(Top-Bottom)/1+10^LogIC50-X∗nH where Top is the Top plateau, Bottom is the Bottom plateau, X is the logarithm of the concentration of the compound, LogIC50 is the concentration giving a response halfway between Top and Bottom,and nH is the Hill slope.
The best fit for CRCs obtained with the [^3H]GABA uptake assay was identified by the extra-sum-of-squares F test (for convenience referred to as F test).

Experiment [1] has as its system tsA201 cells transiently expressing hBGT1. The experiment in a line: Fluo-4 Ca2+-assay in tsA201 cells transiently expressing hBGT1. In kind it is cell-based, human. Particulars: within the 3 min timeframe; blocked by BAPTA/AM. As for the experimental part:
Emission was recorded for 20 s. before adding the compounds (at 4 × concentrations) to the HBSS-HEPES buffer to determine the baseline. […] Data presented is the pooled data of at least three independent experiments with three technical replicates. Changes in fluorescence units (ΔFU) were determined as the maximum fluorescent signal within the 190 s minus the average of the baseline.

The test system of experiment [2] is 74 different neuroreceptors and ion channels. Particulars: adrenergic, GABAergic and dopaminergic receptors included; cited from earlier work.
Where [3] appears, read: read-out: IC50, low affinity component (high IC50), biphasic fit, tsA201, 8 μg cDNA.
The mark [4] stands for this setting: monophasic fit (biphasic n.s.), read-out: IC50.
Where [5] appears, read: biphasic fit, tsA201, 8 μg cDNA, read-out: IC50, low affinity component (high IC50).

Turning to `Cc1ccsc1C(=CCCN(C)[C@@H]1CCCC[C@@H]1C(=O)O)c1sccc1C` [(1S,2R)-5a, (1S,2R)-2-((4,4-bis(3-methylthiophen-2-yl)but-3-en-1-yl)(methyl)amino)cyclohexane-1-carboxylic acid], the IC50 against hBGT1 (IC50, high affinity component (low IC50), biphasic fit, tsA201, 8 μg cDNA) came out at 4.7 µM; on hBGT1 (setting [3]), 370 µM. For the same compound, at hBGT1 (8 μg cDNA), the Frac is 0.28.

In the case of `Cc1ccsc1C(=CCCN(C)[C@@H]1CCCC[C@H]1C(=O)O)c1sccc1C` [(1R,2R)-4a, (1R,2R)-2-((4,4-bis(3-methylthiophen-2-yl)but-3-en-1-yl)(methyl)amino)cyclohexane-1-carboxylic acid], the IC50 is 3.39 µM on hBGT1 (pIC50 ± S.E.M., high affinity component, biphasic fit, tsA201, 8 μg cDNA) and 566 µM at hBGT1 (setting [3]). The same compound had a Frac at hBGT1 (8 μg cDNA) of 0.19.

In the case of `O=C(NC1CCN(Cc2ccccc2)CC1)c1ccc(Cl)cc1Cl` [BPDBA, N-(1-benzyl-4-piperidinyl)-2,4-dichlorobenzamide, reference compound], the “inhibition profile (mono-/biphasic)” value against hBGT1 was “monophasic; also recorded: did not inhibit hBGT1 in a biphasic manner”. Moreover, on hBGT1, the preferred curve fitting result is listed as “monophasic fit”. Also, the IC50 on hBGT1 (setting [4]) is 14.8 µM; at hBGT1 (monophasic fit (biphasic n.s.), read-out: pIC50 ± S.E.M. (converted)) it was 15.1 µM.

For the compound `Cc1ccsc1C(CCCN(C)[C@@H]1CCCc2onc(O)c21)c1sccc1C` [(R)-EF1502, (R)-4-((4,4-bis(3-methylthiophen-2-yl)butyl)(methyl)amino)-4,5,6,7-tetrahydrobenzo[d]isoxazol-3-ol, reference compound], at hBGT1, the “inhibition profile (mono-/biphasic)” value is “biphasic CRC”. Also, the nH1 entry on hBGT1 (Hill slope of first phase, 8 μg cDNA) was “–0.79”. Further, at hBGT1 (Hill slope of second phase, 8 μg cDNA), the nH2 entry is “–2.35”. Also, the IC50 on hBGT1 (setting [5]) was 190 µM; on hBGT1 (biphasic fit, tsA201, 8 μg cDNA, read-out: pIC50 ± S.E.M., high affinity component (converted)) it was 2.45 µM. Further, on hBGT1 (8 μg cDNA), the Frac is reported as 0.30.

In the case of `Nc1ncnc2c1ncn2[C@@H]1O[C@H](COP(=O)(O)OP(=O)(O)OP(=O)(O)O)[C@@H](O)[C@H]1O` [ATP, adenosine 5′-triphosphate, reference compound], the “decrease of total [3H]GABA uptake” value at hBGT1 (ATP present during uptake (10 μM per methods)) was 9%. In addition, in experiment [1], the “intracellular Ca2+ increase” value is reported as “induced a Ca^2+ increase”.

As for `CN(CCC=C1c2ccccc2CCc2ccccc21)[C@@H]1CCCC[C@@H]1C(=O)O` [(1R,2S)-5c, (1S,2R)-2-((3-(10,11-dihydro-5H-dibenzo[a,d][7]annulen-5-ylidene)propyl)(methyl)amino)cyclohexane-1-carboxylic acid], the IC50 turned out to be 11.2 µM at hBGT1 (biphasic fit, tsA201, 8 μg cDNA, read-out: IC50, high affinity component (low IC50)) and 819 µM on hBGT1 (setting [5]). The same compound gave a Frac at hBGT1 (8 μg cDNA) of 0.26.

For the compound `COc1ccccc1C1(O)CCN(CCCn2c3ccccc3c3ccccc32)CC1` [NNC 05-2090, 1-[3-(9H-Carbazol-9-yl)propyl]-4-(2-methoxyphenyl)-4-piperidinol, reference compound], at hBGT1, the “inhibition profile (mono-/biphasic)” value is listed as “did not inhibit hBGT1 in a biphasic manner”. Further, the IC50 on hBGT1 (setting [4]) is 117 µM.

As to `NCCCC(=O)O` [GABA, γ-Aminobutyric acid], at hBGT1, the “inhibition profile (mono-/biphasic)” value is reported as “monophasic” and the preferred curve fitting entry is reported as “monophasic fit”.

Take “N-[4,4-bis(3-methyl-2-thienyl)-3-butenyl]-3-hydroxy-4-(methylamino)-4,5,6,7-tetrahydrobenzo[d]isoxazol-3-ol [EF1502]”: the “activity at a broad range of neurotransmitter systems” value in experiment [2] is reported as “completely devoid of any activity”.
